Source: ChEMBL document CHEMBL4673276, “Inhibition of the NorA efflux pump of S. aureus by (Z)-5-(4-Fluorobenzylidene)-Imidazolidines” (Bioorg Med Chem Lett, 2021)
Values after ≈ are worked out from the molar mass of the structure shown. Each block holds one compound with its values, some of them ahead of it. Active and inactive are the calls of the source. The calls are words filed in the database; no cut-off is given here.

Key:
Staphylococcus aureus [1] = test: Antibacterial activity against Staphylococcus aureus SA-1199B; format: functional
[2] = target: T1, Quinolone resistance protein NorA (Staphylococcus aureus) (UniProt P0A0J7); test: Inhibition of NorA in Staphylococcus aureus SA-1199B assessed as potentiation of norfloxacin-mediated antibacterial activity by measuring fold reduction in norfloxacin MIC
T1 sequence (whole entry): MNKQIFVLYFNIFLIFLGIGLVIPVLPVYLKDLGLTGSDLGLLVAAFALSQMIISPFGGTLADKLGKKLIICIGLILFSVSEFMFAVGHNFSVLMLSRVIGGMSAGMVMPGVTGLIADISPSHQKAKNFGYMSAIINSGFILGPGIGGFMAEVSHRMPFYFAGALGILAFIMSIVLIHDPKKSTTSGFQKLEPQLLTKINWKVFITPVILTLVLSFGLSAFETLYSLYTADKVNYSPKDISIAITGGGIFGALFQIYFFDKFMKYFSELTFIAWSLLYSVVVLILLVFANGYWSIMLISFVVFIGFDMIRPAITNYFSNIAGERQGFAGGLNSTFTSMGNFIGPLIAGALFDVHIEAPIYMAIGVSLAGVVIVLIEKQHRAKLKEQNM

[3] = target: T1, Quinolone resistance protein NorA (Staphylococcus aureus); test: Inhibition of NorA in Staphylococcus aureus SA-1199B assessed as potentiation of norfloxacin-mediated antibacterial activity by measuring maximal reduction in norfloxacin MIC
[4] = Toxicity in brine shrimp assessed as mortality at 1 mg/ml; conditions: artemia salina, read-out: Activity
Staphylococcus aureus [5] = test: Antibacterial activity against Staphylococcus aureus ATCC 25923; format: functional
[6] = target: T1, Quinolone resistance protein NorA (Staphylococcus aureus); test: Inhibition of NorA in Staphylococcus aureus SA-1199B assessed as potentiation of ciprofloxacin -mediated antibacterial activity by measuring maximal reduction in ciprofloxacin MIC
[7] = target: T1, Quinolone resistance protein NorA (Staphylococcus aureus); test: Inhibition of NorA in staphylococcus aureus SA-1199B assessed as ethidium bromide accumulation
[8] = target: T1, Quinolone resistance protein NorA (Staphylococcus aureus); test: Inhibition of NorA in Staphylococcus aureus SA-1199B assessed as potentiation of norfloxacin-mediated antibacterial activity by measuring fold reduction in ciprofloxacin MIC
[9] = target: T1, Quinolone resistance protein NorA (Staphylococcus aureus); test: Inhibition of NorA in staphylococcus aureus SA-1199B assessed as increase in fluorescence emission of ethidium bromide accumulation for 25 mins by fluorometric assays

Structure (SMILES): O=C1NC(=O)/C(=C/c2cccs2)N1
MIC (Staphylococcus aureus [1]): ≥ 1020 µg/mL

Structure (SMILES): O=C1NC(=S)N/C1=C\c1ccc(F)cc1
fold change (FC) [2]: 4
MEC [3]: 64 µg/mL
mortality at 1 mg/ml [4]: 90%
MIC (Staphylococcus aureus [5]): 512 µg/mL (≈ 2300 µM)
MIC (Staphylococcus aureus [1]): 512 µg/mL (≈ 2300 µM)
MEC [6]: 64 µg/mL
inhibition [7]: Active
fold change (FC) [8]: 3.2
inhibition [9]: Active

Structure (SMILES): O=C1NC(=O)/C(=C/c2ccc(F)cc2)N1
fold change (FC) [2]: 6.4
MEC [3]: 64 µg/mL
mortality at 1 mg/ml [4]: 47%
MIC (Staphylococcus aureus [5]): 512 µg/mL (≈ 2480 µM)
MIC (Staphylococcus aureus [1]): 512 µg/mL (≈ 2480 µM)
MEC [6]: 64 µg/mL
inhibition [7]: Active
fold change (FC) [8]: 3.2
inhibition [9]: Active

Structure (SMILES): CCn1cc(C(=O)O)c(=O)c2cc(F)c(N3CCNCC3)cc21 [NORFLOXACIN]
MIC (Staphylococcus aureus [1]): 64 µg/mL (≈ 200 µM)

Structure (SMILES): CN(C)CCCN1c2ccccc2Sc2ccc(Cl)cc21
inhibition [9]: Active

The next lines start with the values.

MIC (Staphylococcus aureus [1]): ≥ 1020 µg/mL
Structure (SMILES): O=C1NC(=S)N/C1=C\c1ccccn1

MIC (Staphylococcus aureus [1]): ≥ 1020 µg/mL
Structure (SMILES): O=C1NC(=O)/C(=C/c2ccccn2)N1

MIC (Staphylococcus aureus [1]): ≥ 1020 µg/mL
Structure (SMILES): O=C1NC(=S)N/C1=C\c1cccs1
